In ChEMBL document CHEMBL5465560, “Selectivity Literature for EUbOPEN Chemogenomic Library” (2024):

Experiments:
[1] = biological target: Bone morphogenetic protein receptor type-1A (Homo sapiens, UniProt P36894); test: Selectivity interaction (KinomeScan (DiscoverX)) EUB0000229b BMPR1A; conditions: at 10 µM
[2] = biological target: Casein kinase I isoform gamma-3 (Homo sapiens) (UniProt Q9Y6M4); conditions: at 10 µM
[3] = tested on: Hepatocyte growth factor receptor (Homo sapiens), P08581 [M1250T]; test: (§1) Selectivity interaction (SelectScreen profiling (Invitrogen)) EUB0000607a MET; conditions: at 2 µM
Sequence of Hepatocyte growth factor receptor (Homo sapiens), P08581 [M1250T] (P08581 whole entry M1250T): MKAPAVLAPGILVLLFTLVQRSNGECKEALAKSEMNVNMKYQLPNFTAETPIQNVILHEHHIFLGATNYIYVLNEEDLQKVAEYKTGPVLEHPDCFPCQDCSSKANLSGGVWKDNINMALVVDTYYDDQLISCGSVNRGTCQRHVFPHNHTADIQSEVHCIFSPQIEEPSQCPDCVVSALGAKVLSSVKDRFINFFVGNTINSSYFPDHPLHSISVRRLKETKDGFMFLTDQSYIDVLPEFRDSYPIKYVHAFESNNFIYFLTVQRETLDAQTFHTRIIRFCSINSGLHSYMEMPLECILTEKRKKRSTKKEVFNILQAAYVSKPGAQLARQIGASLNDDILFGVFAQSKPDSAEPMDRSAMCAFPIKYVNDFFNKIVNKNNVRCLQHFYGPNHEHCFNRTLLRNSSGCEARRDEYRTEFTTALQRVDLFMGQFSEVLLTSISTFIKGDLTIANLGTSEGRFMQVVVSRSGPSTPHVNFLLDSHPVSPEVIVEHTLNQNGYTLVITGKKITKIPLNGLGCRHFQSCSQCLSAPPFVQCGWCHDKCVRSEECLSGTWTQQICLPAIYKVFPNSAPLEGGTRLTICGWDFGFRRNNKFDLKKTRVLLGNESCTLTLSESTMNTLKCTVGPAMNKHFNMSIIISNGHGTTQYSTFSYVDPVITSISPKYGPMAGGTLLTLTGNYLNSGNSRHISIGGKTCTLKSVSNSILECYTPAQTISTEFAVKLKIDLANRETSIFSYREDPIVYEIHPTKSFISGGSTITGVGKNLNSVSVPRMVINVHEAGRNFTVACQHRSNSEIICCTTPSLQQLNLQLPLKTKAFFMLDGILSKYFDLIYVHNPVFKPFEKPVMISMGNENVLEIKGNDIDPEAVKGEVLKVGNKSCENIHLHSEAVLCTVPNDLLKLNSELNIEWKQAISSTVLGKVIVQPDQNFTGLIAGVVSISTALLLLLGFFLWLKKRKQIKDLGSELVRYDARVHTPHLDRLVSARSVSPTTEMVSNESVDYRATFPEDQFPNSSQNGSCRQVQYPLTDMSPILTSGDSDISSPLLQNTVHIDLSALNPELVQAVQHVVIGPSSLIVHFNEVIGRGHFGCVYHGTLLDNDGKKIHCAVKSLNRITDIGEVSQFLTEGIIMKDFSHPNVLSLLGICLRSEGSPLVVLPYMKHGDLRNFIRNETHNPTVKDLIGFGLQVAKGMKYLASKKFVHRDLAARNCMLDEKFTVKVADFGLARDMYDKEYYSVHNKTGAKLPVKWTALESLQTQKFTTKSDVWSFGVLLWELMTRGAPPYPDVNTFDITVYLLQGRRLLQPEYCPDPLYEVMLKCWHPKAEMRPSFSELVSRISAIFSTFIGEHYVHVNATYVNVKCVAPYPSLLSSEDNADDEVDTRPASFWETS

[4] = biological target: Hepatocyte growth factor receptor (Homo sapiens, UniProt P08581); test: as §1; conditions: at 2 µM
Sequence of Hepatocyte growth factor receptor (P08581 whole entry): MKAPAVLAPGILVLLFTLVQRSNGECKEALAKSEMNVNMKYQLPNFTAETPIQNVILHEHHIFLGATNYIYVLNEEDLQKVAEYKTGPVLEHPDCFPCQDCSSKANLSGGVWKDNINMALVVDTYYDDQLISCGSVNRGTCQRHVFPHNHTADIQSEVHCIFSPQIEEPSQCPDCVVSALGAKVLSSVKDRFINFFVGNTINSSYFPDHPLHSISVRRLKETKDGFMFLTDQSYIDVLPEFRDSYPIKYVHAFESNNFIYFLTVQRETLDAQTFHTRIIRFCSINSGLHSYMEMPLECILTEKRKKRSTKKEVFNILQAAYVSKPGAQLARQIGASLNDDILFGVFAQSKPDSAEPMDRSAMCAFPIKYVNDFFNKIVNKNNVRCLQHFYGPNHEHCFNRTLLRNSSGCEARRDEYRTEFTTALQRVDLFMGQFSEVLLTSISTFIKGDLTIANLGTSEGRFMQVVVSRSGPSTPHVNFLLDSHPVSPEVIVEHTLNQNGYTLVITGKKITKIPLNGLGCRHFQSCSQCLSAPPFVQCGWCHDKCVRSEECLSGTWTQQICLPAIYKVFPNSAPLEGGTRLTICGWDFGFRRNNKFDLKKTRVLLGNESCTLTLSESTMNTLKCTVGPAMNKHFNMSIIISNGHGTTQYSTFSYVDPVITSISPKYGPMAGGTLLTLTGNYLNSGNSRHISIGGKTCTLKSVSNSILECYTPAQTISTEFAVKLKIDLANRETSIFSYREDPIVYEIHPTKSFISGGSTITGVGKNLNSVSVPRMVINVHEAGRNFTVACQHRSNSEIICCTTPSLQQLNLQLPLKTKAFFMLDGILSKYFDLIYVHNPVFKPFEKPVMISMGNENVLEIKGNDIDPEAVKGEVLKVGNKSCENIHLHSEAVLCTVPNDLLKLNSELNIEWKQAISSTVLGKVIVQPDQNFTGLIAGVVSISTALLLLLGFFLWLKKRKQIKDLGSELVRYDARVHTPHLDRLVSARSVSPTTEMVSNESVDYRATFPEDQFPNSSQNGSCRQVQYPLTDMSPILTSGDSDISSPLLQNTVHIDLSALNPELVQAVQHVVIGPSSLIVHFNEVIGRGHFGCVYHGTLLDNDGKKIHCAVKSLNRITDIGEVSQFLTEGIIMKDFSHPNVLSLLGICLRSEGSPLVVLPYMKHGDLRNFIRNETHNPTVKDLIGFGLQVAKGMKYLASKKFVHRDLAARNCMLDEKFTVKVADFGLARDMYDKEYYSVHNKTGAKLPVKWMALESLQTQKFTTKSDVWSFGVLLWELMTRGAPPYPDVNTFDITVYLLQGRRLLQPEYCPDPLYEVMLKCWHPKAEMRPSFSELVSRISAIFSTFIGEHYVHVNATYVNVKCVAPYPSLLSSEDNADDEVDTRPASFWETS

[5] = biological target: T1, MAP/microtubule affinity-regulating kinase 4 (Homo sapiens) (UniProt Q96L34); test: Selectivity interaction (KinomeScan (DiscoverX)) EUB0001049a MARK4; conditions: at 1 µM
T1 sequence (whole entry): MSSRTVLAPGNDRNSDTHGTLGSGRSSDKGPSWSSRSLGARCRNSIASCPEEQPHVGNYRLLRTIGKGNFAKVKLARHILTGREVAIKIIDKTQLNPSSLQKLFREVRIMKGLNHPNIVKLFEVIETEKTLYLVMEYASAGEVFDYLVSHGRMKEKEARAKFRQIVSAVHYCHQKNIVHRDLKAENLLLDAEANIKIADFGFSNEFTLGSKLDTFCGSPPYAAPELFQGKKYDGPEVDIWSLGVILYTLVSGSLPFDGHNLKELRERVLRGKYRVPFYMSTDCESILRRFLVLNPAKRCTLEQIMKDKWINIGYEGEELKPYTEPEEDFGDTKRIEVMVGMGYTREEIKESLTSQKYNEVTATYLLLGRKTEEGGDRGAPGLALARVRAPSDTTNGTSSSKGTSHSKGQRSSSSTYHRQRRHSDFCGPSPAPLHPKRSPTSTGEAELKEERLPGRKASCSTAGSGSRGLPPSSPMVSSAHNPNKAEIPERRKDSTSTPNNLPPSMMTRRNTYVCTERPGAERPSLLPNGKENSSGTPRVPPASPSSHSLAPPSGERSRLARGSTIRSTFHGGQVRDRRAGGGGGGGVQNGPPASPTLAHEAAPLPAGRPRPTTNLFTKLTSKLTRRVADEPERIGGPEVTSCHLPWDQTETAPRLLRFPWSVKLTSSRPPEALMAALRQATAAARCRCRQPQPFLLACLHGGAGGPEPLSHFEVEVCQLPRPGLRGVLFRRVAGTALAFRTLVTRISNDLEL

[6] = biological target: T2, Cyclin-G-associated kinase (Homo sapiens) (UniProt O14976); test: Selectivity interaction (KinomeScan (DiscoverX)) EUB0000618a GAK; conditions: at 10 µM
T2 sequence (whole entry): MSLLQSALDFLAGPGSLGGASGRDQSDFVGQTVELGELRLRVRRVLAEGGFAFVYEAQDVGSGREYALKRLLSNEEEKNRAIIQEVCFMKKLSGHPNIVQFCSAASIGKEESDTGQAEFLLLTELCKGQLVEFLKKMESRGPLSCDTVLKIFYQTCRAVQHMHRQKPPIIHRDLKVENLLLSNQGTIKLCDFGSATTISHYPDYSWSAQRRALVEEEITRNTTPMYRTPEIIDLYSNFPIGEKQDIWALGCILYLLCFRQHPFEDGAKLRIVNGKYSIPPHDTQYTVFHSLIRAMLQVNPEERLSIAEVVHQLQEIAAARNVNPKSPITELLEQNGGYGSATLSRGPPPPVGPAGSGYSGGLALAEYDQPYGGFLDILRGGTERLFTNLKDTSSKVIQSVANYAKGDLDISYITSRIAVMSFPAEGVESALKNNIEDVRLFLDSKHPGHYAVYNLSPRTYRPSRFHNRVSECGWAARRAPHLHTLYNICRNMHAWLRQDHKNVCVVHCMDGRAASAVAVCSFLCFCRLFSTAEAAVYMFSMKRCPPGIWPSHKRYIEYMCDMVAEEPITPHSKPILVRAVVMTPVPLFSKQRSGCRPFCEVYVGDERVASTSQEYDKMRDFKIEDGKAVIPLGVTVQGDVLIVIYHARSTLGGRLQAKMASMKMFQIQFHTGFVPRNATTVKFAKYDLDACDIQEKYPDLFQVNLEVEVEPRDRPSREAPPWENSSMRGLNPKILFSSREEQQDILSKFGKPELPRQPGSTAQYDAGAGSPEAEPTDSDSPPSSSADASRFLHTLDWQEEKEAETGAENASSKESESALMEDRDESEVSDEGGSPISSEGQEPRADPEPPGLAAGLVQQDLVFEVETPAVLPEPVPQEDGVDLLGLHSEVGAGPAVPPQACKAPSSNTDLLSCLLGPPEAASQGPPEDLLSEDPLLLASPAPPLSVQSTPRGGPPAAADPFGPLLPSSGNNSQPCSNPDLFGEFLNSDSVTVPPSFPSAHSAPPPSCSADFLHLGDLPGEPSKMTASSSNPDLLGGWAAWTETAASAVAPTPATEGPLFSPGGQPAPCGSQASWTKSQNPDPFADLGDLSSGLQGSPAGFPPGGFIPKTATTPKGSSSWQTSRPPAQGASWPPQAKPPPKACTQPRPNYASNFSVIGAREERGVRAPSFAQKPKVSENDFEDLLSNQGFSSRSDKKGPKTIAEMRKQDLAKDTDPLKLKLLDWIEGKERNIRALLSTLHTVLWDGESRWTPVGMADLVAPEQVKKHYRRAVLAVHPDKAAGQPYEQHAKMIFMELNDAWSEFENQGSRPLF

[7] = biological target: Serine/threonine-protein kinase PLK1 (Homo sapiens, UniProt P53350); test: Selectivity interaction (Ambit KINOMEscan and KiNATiv profiling in Jurkat cells) EUB0000090b PLK1; assay type: cell-based; conditions: at 1 µM
Sequence of Serine/threonine-protein kinase PLK1 (P53350 whole entry): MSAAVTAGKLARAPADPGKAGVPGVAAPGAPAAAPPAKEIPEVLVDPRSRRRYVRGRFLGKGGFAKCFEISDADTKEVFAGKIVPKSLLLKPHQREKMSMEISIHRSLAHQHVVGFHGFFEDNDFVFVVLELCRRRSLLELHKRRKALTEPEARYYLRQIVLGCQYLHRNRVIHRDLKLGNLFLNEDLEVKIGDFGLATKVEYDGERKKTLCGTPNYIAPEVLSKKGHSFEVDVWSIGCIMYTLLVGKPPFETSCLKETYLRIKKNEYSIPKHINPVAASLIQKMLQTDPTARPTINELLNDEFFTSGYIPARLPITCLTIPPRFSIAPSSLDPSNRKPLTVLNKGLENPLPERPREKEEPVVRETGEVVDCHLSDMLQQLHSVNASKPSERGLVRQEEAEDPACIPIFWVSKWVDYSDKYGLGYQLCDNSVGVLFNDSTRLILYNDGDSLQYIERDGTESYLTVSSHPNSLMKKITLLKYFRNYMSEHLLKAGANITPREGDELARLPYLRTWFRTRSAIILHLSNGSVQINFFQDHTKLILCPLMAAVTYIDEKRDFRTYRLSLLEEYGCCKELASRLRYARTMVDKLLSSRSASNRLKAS

Sequence of Bone morphogenetic protein receptor type-1A (P36894 whole entry, canonical isoform): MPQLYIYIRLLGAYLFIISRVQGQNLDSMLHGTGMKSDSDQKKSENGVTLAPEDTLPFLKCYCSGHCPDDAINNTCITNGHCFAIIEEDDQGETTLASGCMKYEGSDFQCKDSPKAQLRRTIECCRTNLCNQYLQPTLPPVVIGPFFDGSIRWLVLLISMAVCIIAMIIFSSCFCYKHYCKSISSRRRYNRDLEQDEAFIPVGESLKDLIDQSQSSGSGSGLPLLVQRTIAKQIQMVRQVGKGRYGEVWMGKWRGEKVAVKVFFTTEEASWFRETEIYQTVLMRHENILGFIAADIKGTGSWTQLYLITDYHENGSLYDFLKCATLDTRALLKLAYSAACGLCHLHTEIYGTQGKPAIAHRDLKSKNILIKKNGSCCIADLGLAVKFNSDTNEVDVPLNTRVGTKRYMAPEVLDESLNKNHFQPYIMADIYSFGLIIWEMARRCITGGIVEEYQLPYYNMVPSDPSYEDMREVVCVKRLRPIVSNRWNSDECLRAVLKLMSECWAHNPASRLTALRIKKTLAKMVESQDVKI
Sequence of Casein kinase I isoform gamma-3 (Homo sapiens) (Q9Y6M4 whole entry, looked up, canonical isoform): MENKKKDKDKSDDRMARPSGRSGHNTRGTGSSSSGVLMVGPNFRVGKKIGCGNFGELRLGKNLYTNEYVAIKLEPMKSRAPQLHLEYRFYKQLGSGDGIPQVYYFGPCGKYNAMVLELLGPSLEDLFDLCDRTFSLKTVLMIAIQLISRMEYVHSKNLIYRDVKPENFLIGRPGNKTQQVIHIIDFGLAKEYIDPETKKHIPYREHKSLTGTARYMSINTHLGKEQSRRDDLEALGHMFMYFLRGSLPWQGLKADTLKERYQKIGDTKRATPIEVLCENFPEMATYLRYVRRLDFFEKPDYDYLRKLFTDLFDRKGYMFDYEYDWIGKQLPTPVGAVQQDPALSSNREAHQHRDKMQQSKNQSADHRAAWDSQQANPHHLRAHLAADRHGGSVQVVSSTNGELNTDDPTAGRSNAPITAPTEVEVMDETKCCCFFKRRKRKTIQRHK

COc1cc(N(C)c2ccnc3ccc(C(F)(F)F)cc23)cc(OC)c1OC
% binding [1]: 76%

Cc1cc([C@@H](C)Nc2ccccc2C(=O)O)c2nc(N3CCOCC3)cc(=O)n2c1 [AZD-6482]
% of control [2]: 100%

CNC(=O)Nc1ccc(-c2nc(N3CC4CCC(C3)O4)c3cnn(C4CCC5(CC4)OCCO5)c3n2)cc1
% of inhibition [3]: 1%
% of inhibition [4]: 2%

COc1cc(Nc2nc(C)cc(-c3cnn4nc(OC)ccc34)n2)cc(C(F)(F)F)c1
% of control [5]: 100%

O[C@H]1CC[C@H](Nc2ncc3nc(Nc4c(F)cc(F)cc4F)n([C@H]4CCOC4)c3n2)CC1
% of control [6]: 13%

CN(C)C/C=C/C(=O)Nc1ccc(C(=O)N2CCCC(Nc3ncc(Cl)c(-c4c[nH]c5ccccc45)n3)C2)cc1 (configuration not stated)
% of control [7]: 90%
